# Reference: ChEMBL document CHEMBL1201862, “PubChem BioAssay data set” (2004)
# Activity calls are given as the source filed them.
# Legend:
# Protein skinhead-1 = molecular target: T1, Protein skinhead-1 (Caenorhabditis elegans, UniProt P34707); assay type: functional
# T1 sequence (P34707 whole entry): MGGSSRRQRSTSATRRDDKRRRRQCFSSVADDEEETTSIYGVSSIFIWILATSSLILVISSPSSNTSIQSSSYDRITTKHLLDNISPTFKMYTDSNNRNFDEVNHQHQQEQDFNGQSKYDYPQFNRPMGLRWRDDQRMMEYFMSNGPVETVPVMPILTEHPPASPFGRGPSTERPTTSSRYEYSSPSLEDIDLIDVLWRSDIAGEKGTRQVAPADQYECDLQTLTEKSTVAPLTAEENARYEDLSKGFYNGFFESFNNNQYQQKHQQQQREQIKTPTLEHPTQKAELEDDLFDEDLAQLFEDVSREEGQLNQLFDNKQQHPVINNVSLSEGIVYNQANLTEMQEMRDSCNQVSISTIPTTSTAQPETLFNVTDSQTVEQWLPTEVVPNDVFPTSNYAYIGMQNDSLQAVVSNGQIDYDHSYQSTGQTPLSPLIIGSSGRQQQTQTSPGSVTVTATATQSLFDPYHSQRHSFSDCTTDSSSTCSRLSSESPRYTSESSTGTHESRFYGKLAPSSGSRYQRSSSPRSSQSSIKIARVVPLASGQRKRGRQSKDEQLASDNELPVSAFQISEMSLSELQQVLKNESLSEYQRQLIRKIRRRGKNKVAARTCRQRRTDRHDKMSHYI
# Genome polyprotein = Genome polyprotein (dengue virus type 2, UniProt P29990); experiment: Dengue-2 NS5 methyltransferase inhibitors, primary screen, biochemical, confirmation dose response (AID 588689); assay type: functional
# Sequence of Genome polyprotein (P29990 2492-3391 limits assumed): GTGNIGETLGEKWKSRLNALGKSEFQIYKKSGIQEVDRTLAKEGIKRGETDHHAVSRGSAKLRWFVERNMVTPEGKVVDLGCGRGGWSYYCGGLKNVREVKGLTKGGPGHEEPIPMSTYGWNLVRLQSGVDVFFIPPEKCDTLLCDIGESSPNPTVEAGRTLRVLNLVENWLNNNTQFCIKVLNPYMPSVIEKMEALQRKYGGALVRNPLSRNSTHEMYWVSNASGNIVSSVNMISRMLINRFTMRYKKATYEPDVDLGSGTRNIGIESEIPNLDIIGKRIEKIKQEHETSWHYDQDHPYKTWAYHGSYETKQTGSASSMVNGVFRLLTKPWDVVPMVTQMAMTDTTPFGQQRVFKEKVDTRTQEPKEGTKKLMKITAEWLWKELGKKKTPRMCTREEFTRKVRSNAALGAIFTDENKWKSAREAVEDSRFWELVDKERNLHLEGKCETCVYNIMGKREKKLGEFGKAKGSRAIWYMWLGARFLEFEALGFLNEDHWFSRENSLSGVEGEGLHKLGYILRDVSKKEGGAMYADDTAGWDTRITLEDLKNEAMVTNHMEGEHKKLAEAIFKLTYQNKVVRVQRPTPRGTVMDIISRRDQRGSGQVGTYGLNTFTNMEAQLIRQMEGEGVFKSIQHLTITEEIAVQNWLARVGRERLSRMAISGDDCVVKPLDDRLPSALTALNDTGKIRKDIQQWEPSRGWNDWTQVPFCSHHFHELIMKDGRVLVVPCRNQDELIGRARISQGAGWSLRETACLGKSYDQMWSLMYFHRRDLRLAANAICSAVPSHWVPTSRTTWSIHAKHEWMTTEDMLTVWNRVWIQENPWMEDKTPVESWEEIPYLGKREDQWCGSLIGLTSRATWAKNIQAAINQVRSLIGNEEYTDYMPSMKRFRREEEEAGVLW
# [1] = molecular target: T2, Carboxy-terminal domain RNA polymerase II polypeptide A small phosphatase 1 (Homo sapiens, UniProt Q9GZU7); experiment: inhibitors of CTDSP1, concentration-response testing, biochemical assay, absorbance-based, actives from ultra-high-throughput screening (AID 540297); assay type: functional
# T2 sequence (Q9GZU7 whole entry): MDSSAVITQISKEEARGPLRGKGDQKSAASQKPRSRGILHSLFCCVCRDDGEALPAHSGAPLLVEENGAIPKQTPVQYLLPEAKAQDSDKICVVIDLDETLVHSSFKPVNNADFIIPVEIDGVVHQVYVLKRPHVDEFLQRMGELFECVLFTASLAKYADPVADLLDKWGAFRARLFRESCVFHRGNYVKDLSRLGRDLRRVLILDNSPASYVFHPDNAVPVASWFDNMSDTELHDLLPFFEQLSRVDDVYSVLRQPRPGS
# [2] = A cytotoxicity screen of small molecule inhibitors of the PhoP region in Salmonella typhi identified in the primary screen. [Related pubchem assays: 1850, 1864, 1985 ]; assay type: functional
# [3] = molecular target: Induced myeloid leukemia cell differentiation protein Mcl-1 (Homo sapiens, UniProt Q07820); assay type: functional
# Sequence of Induced myeloid leukemia cell differentiation protein Mcl-1 (Q07820 whole entry): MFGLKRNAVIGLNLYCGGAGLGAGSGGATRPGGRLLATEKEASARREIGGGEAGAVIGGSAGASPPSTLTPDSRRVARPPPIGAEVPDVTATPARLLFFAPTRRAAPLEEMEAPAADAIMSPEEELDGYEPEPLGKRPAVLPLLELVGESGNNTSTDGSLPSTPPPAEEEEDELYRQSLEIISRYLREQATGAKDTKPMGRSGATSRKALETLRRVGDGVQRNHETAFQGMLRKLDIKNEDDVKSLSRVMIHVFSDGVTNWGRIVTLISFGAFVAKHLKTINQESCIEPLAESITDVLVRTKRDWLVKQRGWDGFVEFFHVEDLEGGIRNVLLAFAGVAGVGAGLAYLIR
# [4] = molecular target: T3, Short transient receptor potential channel 4 (Mus musculus, UniProt Q9QUQ5); experiment: mouse TRPC4 channel activators, dose response, cell-based, HEK293 TRPC4/mu-opioid, Fluo-4 calcium (AID 434937); assay type: functional
# T3 sequence (Q9QUQ5 whole entry): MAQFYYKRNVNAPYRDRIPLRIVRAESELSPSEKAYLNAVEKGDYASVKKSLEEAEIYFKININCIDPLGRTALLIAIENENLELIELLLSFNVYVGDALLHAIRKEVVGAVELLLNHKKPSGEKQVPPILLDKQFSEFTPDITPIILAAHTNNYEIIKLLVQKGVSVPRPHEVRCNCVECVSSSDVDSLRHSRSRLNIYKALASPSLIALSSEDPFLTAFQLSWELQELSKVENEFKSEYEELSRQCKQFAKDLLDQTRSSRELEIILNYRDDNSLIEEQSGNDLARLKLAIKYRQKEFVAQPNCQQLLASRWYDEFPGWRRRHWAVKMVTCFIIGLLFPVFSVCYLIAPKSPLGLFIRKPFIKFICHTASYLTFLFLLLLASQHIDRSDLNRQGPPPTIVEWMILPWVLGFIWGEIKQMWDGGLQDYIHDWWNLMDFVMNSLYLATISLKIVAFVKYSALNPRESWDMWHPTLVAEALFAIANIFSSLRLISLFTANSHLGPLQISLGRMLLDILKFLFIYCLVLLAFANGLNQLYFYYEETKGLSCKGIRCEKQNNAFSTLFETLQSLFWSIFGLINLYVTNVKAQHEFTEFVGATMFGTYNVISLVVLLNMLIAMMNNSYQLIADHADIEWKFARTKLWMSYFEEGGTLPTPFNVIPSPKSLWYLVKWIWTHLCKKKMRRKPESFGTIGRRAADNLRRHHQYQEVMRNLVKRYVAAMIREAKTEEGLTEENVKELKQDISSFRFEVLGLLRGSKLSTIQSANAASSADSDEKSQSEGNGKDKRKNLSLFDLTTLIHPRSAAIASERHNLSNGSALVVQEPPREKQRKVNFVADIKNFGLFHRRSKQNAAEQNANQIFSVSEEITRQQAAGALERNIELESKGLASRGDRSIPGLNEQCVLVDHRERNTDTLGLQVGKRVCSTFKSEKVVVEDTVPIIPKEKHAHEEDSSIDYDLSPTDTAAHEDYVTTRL
# Aminopeptidase N = molecular target: T4, Aminopeptidase N (Plasmodium falciparum FcB1/Columbia, UniProt O96935); experiment: P. falciparum M1AAP inhibitors, biochemical, fluorogenic H-Leu-NHMec substrate, 1536-well (AID 1445); design: species or system Plasmodium falciparum 3D7, 3D7
# T4 sequence (O96935 whole entry): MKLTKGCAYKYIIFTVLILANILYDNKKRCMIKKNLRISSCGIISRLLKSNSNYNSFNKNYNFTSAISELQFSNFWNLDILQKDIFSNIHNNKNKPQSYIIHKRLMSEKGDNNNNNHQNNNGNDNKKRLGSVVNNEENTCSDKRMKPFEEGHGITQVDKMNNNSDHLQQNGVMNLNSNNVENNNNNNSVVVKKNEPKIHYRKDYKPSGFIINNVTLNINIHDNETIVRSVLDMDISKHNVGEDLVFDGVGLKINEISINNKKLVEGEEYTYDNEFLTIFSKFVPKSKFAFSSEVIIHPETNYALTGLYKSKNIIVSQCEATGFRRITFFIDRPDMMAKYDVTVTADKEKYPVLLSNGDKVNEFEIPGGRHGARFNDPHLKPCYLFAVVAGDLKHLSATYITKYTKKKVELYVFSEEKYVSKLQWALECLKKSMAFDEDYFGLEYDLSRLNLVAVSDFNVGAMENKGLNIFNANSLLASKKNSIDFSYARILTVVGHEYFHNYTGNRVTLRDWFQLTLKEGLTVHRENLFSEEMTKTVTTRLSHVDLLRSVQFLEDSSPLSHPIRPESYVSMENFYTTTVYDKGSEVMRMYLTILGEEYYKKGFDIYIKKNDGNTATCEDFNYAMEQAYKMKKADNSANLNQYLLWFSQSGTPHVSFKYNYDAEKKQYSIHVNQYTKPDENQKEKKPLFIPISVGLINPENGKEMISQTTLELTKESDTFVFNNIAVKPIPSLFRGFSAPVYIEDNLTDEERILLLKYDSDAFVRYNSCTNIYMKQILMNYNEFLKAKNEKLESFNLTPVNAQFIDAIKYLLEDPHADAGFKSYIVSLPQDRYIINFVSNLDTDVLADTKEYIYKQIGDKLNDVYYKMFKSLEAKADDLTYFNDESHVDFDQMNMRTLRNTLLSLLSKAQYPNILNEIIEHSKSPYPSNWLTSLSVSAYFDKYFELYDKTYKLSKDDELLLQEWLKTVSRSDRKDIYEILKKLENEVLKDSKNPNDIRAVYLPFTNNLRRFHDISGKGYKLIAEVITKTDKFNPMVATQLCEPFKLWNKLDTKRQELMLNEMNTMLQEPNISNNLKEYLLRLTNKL
# Large T antigen = Large T antigen (Simian virus 40, UniProt P03070); assay type: functional, Betapolyomavirus macacae;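 note: Confirmatory-stage PubChem screen for compounds that inhibit SV40 T antigen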
# Sequence of Large T antigen (P03070 whole entry, the tested form may be a part): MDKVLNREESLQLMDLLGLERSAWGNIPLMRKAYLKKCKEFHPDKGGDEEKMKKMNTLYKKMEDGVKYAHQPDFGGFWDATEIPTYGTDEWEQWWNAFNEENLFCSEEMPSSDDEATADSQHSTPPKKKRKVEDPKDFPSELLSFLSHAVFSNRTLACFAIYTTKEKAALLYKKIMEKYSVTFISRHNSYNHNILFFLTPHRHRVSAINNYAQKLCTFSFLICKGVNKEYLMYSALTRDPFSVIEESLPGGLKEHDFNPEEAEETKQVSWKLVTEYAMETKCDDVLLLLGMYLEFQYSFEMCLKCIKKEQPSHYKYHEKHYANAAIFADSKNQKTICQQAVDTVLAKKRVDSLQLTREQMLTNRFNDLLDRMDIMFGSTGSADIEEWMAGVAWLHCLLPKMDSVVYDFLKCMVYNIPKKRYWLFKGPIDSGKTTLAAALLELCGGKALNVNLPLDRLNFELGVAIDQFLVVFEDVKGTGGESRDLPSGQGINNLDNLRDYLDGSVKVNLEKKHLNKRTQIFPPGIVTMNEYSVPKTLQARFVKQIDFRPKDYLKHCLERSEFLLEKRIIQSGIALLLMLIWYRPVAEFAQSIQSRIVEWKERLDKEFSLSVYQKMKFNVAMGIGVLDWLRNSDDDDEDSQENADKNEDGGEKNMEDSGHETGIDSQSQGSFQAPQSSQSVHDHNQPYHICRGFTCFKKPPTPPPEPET
# Fatty acid synthase = Fatty acid synthase (Homo sapiens, UniProt P49327); experiment: FAS thioesterase domain inhibitors, dose response, biochemical, kinetic fluorescence intensity (AID 624326); assay type: functional;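 note: rate of fluorescence rise from hydrolysis of a fluorogenic O-methyl fluorescein ester substrate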
# [5] = molecular target: DNA dC->dU-editing enzyme APOBEC-3G (Homo sapiens, UniProt Q9HC16); experiment: Dose Response confirmation of small molecule APOBEC3G DNA Deaminase Inhibitors via a fluorescence-based single-stranded DNA deaminase assay. [Related pubchem assays (depositor defined):AID493012, AID493028]; assay type: functional
# Sequence of DNA dC->dU-editing enzyme APOBEC-3G (Q9HC16 whole entry): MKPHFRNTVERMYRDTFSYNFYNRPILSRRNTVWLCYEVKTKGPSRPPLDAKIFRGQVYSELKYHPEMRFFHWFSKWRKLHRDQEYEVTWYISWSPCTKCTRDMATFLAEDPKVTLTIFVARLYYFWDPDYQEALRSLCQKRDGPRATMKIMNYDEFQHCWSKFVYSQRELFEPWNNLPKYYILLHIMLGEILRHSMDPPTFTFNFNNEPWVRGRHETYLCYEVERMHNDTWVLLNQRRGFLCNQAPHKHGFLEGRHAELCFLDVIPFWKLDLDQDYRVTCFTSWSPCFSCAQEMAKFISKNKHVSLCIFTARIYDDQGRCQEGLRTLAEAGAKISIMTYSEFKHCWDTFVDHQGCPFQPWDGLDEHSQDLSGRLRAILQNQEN
# cells = assay type: functional
# [6] = THP-1 cell cytotoxicity, dose response, cytotoxicity control for non-replicating M. tuberculosis project (AID 489025); assay type: functional
# [7] = microbe, parasite or virus in culture; assay type: functional; settings: Mycobacterium tuberculosis
# [8] = cytotoxicity in OVCAR8 ovarian cancer cells, dose response, PAX8 project, cell-based, plate reader, dry powder samples (AID 743197); assay type: functional; settings: OVCAR-8
# Paired box protein Pax-8 = Paired box protein Pax-8 (Homo sapiens, UniProt Q06710); experiment: inhibitors of PAX8-driven TPO luciferase reporter, dose response, RMG-I cells, cherry-pick (AID 687027); assay type: functional, cell-based;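 note: luciferase reporter driven by Pax8 target thyroperoxidase promoter measured by SteadyGlo luminescence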
# Sequence of Paired box protein Pax-8 (Q06710 whole entry, the tested form may be a part): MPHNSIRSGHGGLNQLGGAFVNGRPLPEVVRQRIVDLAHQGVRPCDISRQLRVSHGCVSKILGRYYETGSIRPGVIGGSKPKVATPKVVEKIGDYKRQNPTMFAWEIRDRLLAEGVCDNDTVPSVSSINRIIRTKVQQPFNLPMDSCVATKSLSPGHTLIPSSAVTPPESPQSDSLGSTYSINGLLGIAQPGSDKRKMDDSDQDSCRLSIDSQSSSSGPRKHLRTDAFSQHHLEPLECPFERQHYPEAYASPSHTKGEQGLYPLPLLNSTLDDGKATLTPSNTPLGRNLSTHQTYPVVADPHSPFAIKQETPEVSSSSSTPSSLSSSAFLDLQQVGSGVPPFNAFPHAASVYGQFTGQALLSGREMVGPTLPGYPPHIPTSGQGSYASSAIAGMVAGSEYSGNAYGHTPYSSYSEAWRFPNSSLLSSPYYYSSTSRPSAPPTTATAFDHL
# [9] = inhibitors of HIV Env-driven cell fusion, dose response, cherry-pick (AID 652057); assay type: functional, cell-based
# [10] = inhibitors of clade B AD8 Env fusion, dose response, cell-based, cherry-pick (AID 652062); assay type: functional;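 note: luciferase signal from cell-cell fusion driven by HIV-1 clade B AD8 Env; potency is for inhibitors of fusion seen as a drop in luminescence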
# [11] = NIH:OVCAR-3 ovarian cancer cell cytotoxicity, dose response, PAX8 inhibitor project, plate reader, dry powder samples (AID 743044); assay type: functional, cell-based
structure (smiles),measurement,setting,value
O=C(O)c1ccccc1-c1ccccc1C(=O)Nc1ccc2c(c1)oc(=O)c1ccccc12,IC50,Protein skinhead-1,> 100 µM (inactive)
same,IC50,Genome polyprotein,56.3 µM (active)
c1ccc(-c2cc(-c3nn4c(-c5ccco5)nnc4s3)c3ccccc3n2)cc1,IC50,[1],16.6 µM (active)
CCCCCCCCCCOC(=O)C[N+](C)(C)CC1CCCCC1O (configuration not stated),EC50,[2],> 50 µM (active)
O=C1CCCC2=C1C(c1ccc(O)c(O)c1)Nc1ccc3ncccc3c12 (configuration not stated),IC50,[3],2.67 µM (active)
Nc1cc(N2CCOCC2)c(Cl)cc1[N+](=O)[O-],EC50,[2],> 50 µM (active)
Cc1ccc(C2N(c3ccc(Cl)c(Cl)c3)C(=O)C3CCCN32)o1 (configuration not stated),EC50,[4],4.22 µM (active)
O=C(NCc1cccs1)C1CCN(S(=O)(=O)c2ccccc2F)CC1,IC50,Aminopeptidase N,51 µM (active)
O=C1Oc2ccccc2C(=O)/C1=C/c1ccccc1O,IC50,[3],4.18 µM (active)
same,IC50,Genome polyprotein,25.2 µM (active)
Cc1nn(CC(=O)Nc2ccc(N(C)C)cc2)c(C)c1[N+](=O)[O-],IC50,[3],7.62 µM (not active)
same,IC50,Large T antigen,12.3 µM (active)
Clc1ccc(OCCCN2CCCC2)cc1Cl,EC50,[2],> 50 µM (active)
Cc1ccc(N2C(=O)NC(=O)/C(=C/c3ccc(-c4ccc(C(=O)O)c(Cl)c4)o3)C2=O)cc1,IC50,[1],5.49 µM (active)
same,IC50,Large T antigen,32.7 µM (active)
CCOC(=O)C1(CCc2ccccc2)CCN(Cc2c(O)cccc2OC)CC1,EC50,[4],0.299 µM (active)
CCCC(C)c1nnc(NC(=O)c2cc(C(=O)OC)cc([N+](=O)[O-])c2)s1 (configuration not stated),IC50,Fatty acid synthase,7.04 µM (active)
same,IC50,[5],19.6 µM (active)
Oc1nc(-c2ccncc2)nc2ccccc12,IC50,[5],44.8 µM (active)
Fc1ccc(COc2ccc(-c3nnco3)cc2)cc1,IC50,Protein skinhead-1,5.67 µM (active)
Cc1noc(NS(=O)(=O)c2ccc(NC(=O)CSc3nnc(-c4ccccc4)n3C3CCCCC3)cc2)c1C,IC50,Aminopeptidase N,75.9 µM (active)
O=C1CCCCC1C(=O)c1ccccc1 (configuration not stated),IC50,[3],0.719 µM (not active)
CC(C)(C)NC(=O)C(=O)NNC(=O)COc1ccc(Br)cc1,IC50,Aminopeptidase N,619 µM (active)
same,IC50,cells,17.9 µM (active)
Cc1csc(NC(=O)CSCC(=O)O)c1-c1nc2ccccc2s1,IC50,Aminopeptidase N,7.09 µM (active)
O=C(Nc1ccc(F)cc1)c1ccc2snnc2c1,EC50,[2],> 50 µM (active)
Cn1c(Cc2ccccc2)nnc1SCC(=O)Nc1ccc2c(c1)OCO2,IC50,Protein skinhead-1,> 100 µM (inactive)
COc1ccccc1NC(=O)CN1CCC(c2nc3cc(C)ccc3[nH]2)CC1,EC50,[2],> 50 µM (active)
C=C1CCC[C@]2(C)C[C@H]3OC(=O)C(CNC(C)CCCC(C)C)[C@H]3CC12 (some centres not stated),CC50,[6],22.1 µM (active)
same,CC50,[7],27 µM (active)
same,IC50,cells,30.6 µM (active)
S=C(NCCc1c[nH]cn1)NC1CCCC1,EC50,[4],0.084 µM (active)
COc1ccc(-c2nc(CN3CCC(C(=O)NC4CCCC4)CC3)c(C)o2)cc1OC,EC50,[4],0.473 µM (active)
Brc1ccc2nc(-c3ccccc3)c(Cc3ccsc3)n2c1,IC50,Protein skinhead-1,> 100 µM (inactive)
C[C@H](NC(=O)C[C@@H]1C[C@@H]2c3cc(NC(=O)Nc4ccc(C(F)(F)F)cc4)ccc3O[C@@H]2[C@@H](CO)O1)c1ccccc1,AC50,[8],36.8 µM (active)
same,AC50,Paired box protein Pax-8,13.2 µM (active)
same,AC50,[9],20.6 µM (active)
same,AC50,[10],27.7 µM (active)
same,AC50,[11],37.9 µM (active)
C[C@@H]1CN([C@H](C)CO)C(=O)c2cc(NC(=O)Nc3ccc(C(F)(F)F)cc3)ccc2O[C@@H](C)CCCCO[C@H]1CN(C)S(=O)(=O)c1ccc(Cl)cc1,AC50,[8],> 70 µM (inactive)
same,AC50,Paired box protein Pax-8,2.41 µM (active)
same,AC50,[11],26.3 µM (active)
COc1ccccc1-c1ccc2c(c1)[C@@H]1[C@@H](CCN1S(=O)(=O)c1ccccc1F)[C@H](CO)N2,AC50,Paired box protein Pax-8,6.87 µM (active)
same,AC50,[11],20.7 µM (active)
c1ccc2oc(N3CCNCC3)nc2c1,EC50,[4],0.668 µM (active)
O=C(N/N=C/c1ccc(OCCCF)cc1)c1ccc(C(F)(F)F)cc1,IC50,[1],13.2 µM (active)
CN(C)/C=C/C=C1C(=O)CCCC1=O,IC50,[1],7.28 µM (active)
